Data published in patent US20050209278A1, “Piperidinyl- and piperazinyl-sulfonylmethyl hydroxamic acids and their use as protease inhibitors” (priority 2002, published 2005).
“And” between values parts separate entries of the source, which are not always exact repeats. Equal values may be shown once.

Tests used:
[1] = biological target: T1, MMP-1 (Homo sapiens, UniProt P03956); test: In vitro MMP inhibition, Ki determination (fluorogenic substrate II); type: biochemical; details: value outside parentheses; read-out: MMP-1 Ki
T1 construct: made in house; host or cells: MMP-1-transfected HT-1080 cells (spent media)
T1 sequence (P03956 100-469): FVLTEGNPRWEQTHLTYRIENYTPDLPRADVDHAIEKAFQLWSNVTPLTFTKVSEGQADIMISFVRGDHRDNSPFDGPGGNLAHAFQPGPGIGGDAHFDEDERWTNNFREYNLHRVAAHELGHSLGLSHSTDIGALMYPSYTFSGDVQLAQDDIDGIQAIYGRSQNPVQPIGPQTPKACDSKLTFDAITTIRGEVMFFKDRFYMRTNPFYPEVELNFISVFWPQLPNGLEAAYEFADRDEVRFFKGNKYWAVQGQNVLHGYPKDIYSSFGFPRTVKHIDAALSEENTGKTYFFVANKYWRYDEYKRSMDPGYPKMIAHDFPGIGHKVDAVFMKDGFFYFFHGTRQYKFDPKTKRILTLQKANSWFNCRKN

[2] = biological target: T2, MMP-2 (Homo sapiens, UniProt P08253); test: as above; type: biochemical; details: value outside parentheses; read-out: MMP-2 Ki
T2 construct: made in house; host or cells: MMP-2-transfected p2AHT2 cells
T2 sequence (P08253 110-660): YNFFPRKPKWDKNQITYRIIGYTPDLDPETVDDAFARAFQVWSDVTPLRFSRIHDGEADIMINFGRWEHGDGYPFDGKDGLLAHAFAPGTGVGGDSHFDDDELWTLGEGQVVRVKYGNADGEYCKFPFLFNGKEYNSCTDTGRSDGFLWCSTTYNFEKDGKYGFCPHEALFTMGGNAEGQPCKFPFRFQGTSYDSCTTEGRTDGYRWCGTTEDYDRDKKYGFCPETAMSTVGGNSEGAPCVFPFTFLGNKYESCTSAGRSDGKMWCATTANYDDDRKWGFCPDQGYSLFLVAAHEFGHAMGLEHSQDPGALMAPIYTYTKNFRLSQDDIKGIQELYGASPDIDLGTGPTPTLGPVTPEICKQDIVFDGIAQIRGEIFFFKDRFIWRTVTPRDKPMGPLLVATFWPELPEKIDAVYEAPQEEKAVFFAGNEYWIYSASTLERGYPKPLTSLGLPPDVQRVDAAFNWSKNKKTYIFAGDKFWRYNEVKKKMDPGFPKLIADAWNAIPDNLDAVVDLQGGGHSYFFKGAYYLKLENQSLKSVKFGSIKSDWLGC

| Compound | Ki [1] | Ki [2] |
| --- | --- | --- |
| O=C(NO)C1(S(=O)(=O)N2CCN(c3ncc(-c4ccc(C(F)(F)F)cc4)s3)CC2)CCOCC1 [Example 346] | 5.69 µM | 0.000215 µM |
| CCCCc1ccc(C2CCN(S(=O)(=O)C3(C(=O)NO)CCOCC3)CC2)nc1 [Example 323] | 6.21 µM | 0.0005 µM |
| O=C(NO)C1(S(=O)(=O)N2CCN(c3ncc(-c4ccc(F)cc4)s3)CC2)CCOCC1 [Example 345] | 5.54 µM | 0.000169 µM |
| O=C(NO)C1(S(=O)(=O)N2CCC(COCC(F)(F)C(F)(F)C(F)(F)F)CC2)CCOCC1 [Example 377] | > 10 µM | 0.0375 µM |
| O=C(NO)C1(S(=O)(=O)N2CCN(c3ccc(-c4ccccc4F)cn3)CC2)CCOCC1 [Example 317] | 2.41 µM | 0.00055 µM |
| CCCCc1cnc(N2CCN(S(=O)(=O)C3(C(=O)NO)CCN(CCOC)CC3)CC2)nc1 [Example 334] | > 10 µM | 0.00599 µM |
| O=C(NO)C1(S(=O)(=O)N2CCC(COCC(F)(F)C(F)(F)C(F)(F)C(F)F)CC2)CCOCC1 [Example 378] | > 10 µM | 0.0248 µM |
| O=C(NO)C1(S(=O)(=O)N2CCN(c3ccc(-c4ccc(OC(F)(F)F)cc4)cc3)CC2)CCOCC1 [Example 327] | 7.3 µM | 0.00097 µM |
| O=C(NO)C1(S(=O)(=O)N2CCN(c3ccc(-c4cccc(OC(F)(F)F)c4)cn3)CC2)CCOCC1 [Example 319] | > 10 µM | 0.0331 µM |
| COc1ccccc1-c1ccc(N2CCN(S(=O)(=O)C3(C(=O)NO)CCOCC3)CC2)nc1 [Example 318] | > 10 µM | 0.079 µM |
| CCc1ccc(C2CCN(S(=O)(=O)C3(C(=O)NO)CCN(CCOC)CC3)CC2)s1 [Example 314] | > 10 µM | 0.0091 µM |
| O=C(NO)C1(S(=O)(=O)N2CCN(c3cnn(CCCC(F)(F)F)c(=O)c3)CC2)CCOCC1 [Example 321] | > 10 µM | > 10 µM |
| O=C(NO)C1(S(=O)(=O)N2CCN(c3ccc(CCCC(F)(F)F)cc3)CC2)CCOCC1 [Example 320] | > 10 µM | 0.000842 µM |
| O=C(NO)C1(S(=O)(=O)N2CCC(c3ccc(OC(F)(F)C(F)F)cc3)CC2)CCOCC1 [Example 337] | 3.29 µM | 0.000427 µM |
| CCN1CCC(C(=O)NO)(S(=O)(=O)N2CCN(c3ccc(-c4ccccc4)c(F)c3)CC2)CC1 [Example 341] | > 10 µM | 0.000829 µM |

Results, then the compound that gave them:

| Ki [1] | Ki [2] | Compound |
| --- | --- | --- |
| 3.43 µM | 0.00402 µM | O=C(NO)C1(S(=O)(=O)N2CCC(c3ccc(-c4ccccc4)cn3)CC2)CCOCC1 [Example 392] |
| 3.25 µM | 0.000209 µM | CCc1ccc(-c2cnc(N3CCN(S(=O)(=O)C4(C(=O)NO)CCOCC4)CC3)s2)cc1 [Example 381] |
| > 10 µM | 0.0383 µM | O=C(NO)C1(S(=O)(=O)N2CCN(c3cccc(OCCCC(F)(F)F)c3)CC2)CCOCC1 [Example 355] |
| > 10 µM | 2.13 µM | O=C(O)c1ccc(N2CCN(S(=O)(=O)C3(C(=O)NO)CCOCC3)CC2)cc1 [Example 352] |
| 3.94 µM | 0.000187 µM | O=C(NO)C1(S(=O)(=O)N2CCN(c3ncc(-c4ccc(OC(F)(F)F)cc4)s3)CC2)CCOCC1 [Example 364] |
| > 10 µM | 0.0271 µM | O=C(NO)C1(S(=O)(=O)N2CCC(COCC(F)(F)C(F)(F)F)CC2)CCOCC1 [Example 376] |
| 9.76 µM | 0.000978 µM | O=C(NO)C1(S(=O)(=O)N2CCC(c3ccc(CCC(F)(F)F)cn3)CC2)CCOCC1 [Example 367] |
| > 10 µM | 0.00126 µM | O=C(NO)C1(S(=O)(=O)N2CCC(c3ccc(CCCC(F)(F)F)cc3)CC2)CCN(C2CC2)CC1 [Example 351] |
| 0.303 µM | 0.0186 µM | CCC=C1CCN(S(=O)(=O)C2(C(=O)NO)CCOCC2)CC1 [Example 374] |
| > 10 µM | 0.00212 µM | O=C(NO)C1(S(=O)(=O)N2CCC(c3ccc(OC(F)(F)C(F)(F)F)cc3)CC2)CCOCC1 [Example 349] |
| > 10 µM | 0.00038 µM | O=C(NO)C1(S(=O)(=O)N2CCN(c3ccc(CCCC(F)(F)F)c(F)c3)CC2)CCOCC1 [Example 389] |
| 2.75 µM | 0.0018 µM | O=C(NO)C1(S(=O)(=O)N2CCC(c3ccc(-c4cccs4)cn3)CC2)CCOCC1 [Example 394] |
| > 2.5 µM | 0.000395 µM | O=C(NO)C1(S(=O)(=O)N2CCN(c3ncc(-c4ccc(-c5ccccc5)cc4)s3)CC2)CCOCC1 [Example 360] |
| > 10 µM | 0.000891 µM | O=C(NO)C1(S(=O)(=O)N2CCC(c3ccc(OCC(F)(F)C(F)F)cc3)CC2)CCN(C2CC2)CC1 [Example 350] |
| 0.266 µM | 0.000185 µM | N#Cc1cccc(-c2cnc(N3CCN(S(=O)(=O)C4(C(=O)NO)CCOCC4)CC3)s2)c1 [Example 384] |
| 5.74 µM | 0.00134 µM | Cc1cccc(-c2cnc(N3CCN(S(=O)(=O)C4(C(=O)NO)CCOCC4)CC3)s2)c1 [Example 370] |
| > 2.5 µM | 0.00137 µM and 0.00139 µM | O=C(NO)C1(S(=O)(=O)N2CCN(c3ncc(/C=C/c4ccccc4)s3)CC2)CCOCC1 [Example 361] |
| > 10 µM | 0.0894 µM | CCCCOc1cccc(N2CCN(S(=O)(=O)C3(C(=O)NO)CCOCC3)CC2)c1 [Example 354] |
